Structures are written as SMILES.

The melting point is the temperature, or range, at which the solid turns liquid.

The compound `COc1cc(Oc2cc(C(F)(F)F)nn2C)nc(Oc2cc(C(F)(F)F)nn2C)c1` had a melting point of 107 °C.
`O=C1N[C@@H](C=Cc2ccccc2)[C@H]1O` returned a melting point of 143 to 144 °C.
The compound `O=C(CCl)Nc1nc(C(Cl)(Cl)Cl)ns1` returned a melting point of 146 °C.
`CCCCC/C=C\C/C=C\CCCCCCCC(=O)Nc1cccc(N(CC(=O)O)CC(=O)O)c1`: the melting point was in the range of 135 to 140 °C.
For `O=c1nc(-c2ccccc2O)oc2ccccc12` the value was 206 to 208 °C; for `O=C(/C=C/c1cccs1)Nc1ccc(-n2nc(C(F)(F)F)cc2C(F)(F)F)cc1`, 216 to 218 °C; for `Cc1cc(-n2ncnn2)cc2ccc(=O)[nH]c12`, 264 to 266 °C.
On to `COc1ccc2cc3c(c(-c4ccc(C)cc4)c2c1)C(=O)NC3=O`, for which the melting point was in the range of 298 to 301 °C.
On to `CC(=O)Nc1nc(CCc2ccc(CON3C(=O)c4ccccc4C3=O)cc2)cs1`, for which the melting point was in the range of 225 to 226 °C.
Regarding `O=C(Cc1cccc(C(F)(F)F)c1)NCc1cccc2c1C(=O)N(C1CCC(=O)NC1=O)C2=O` (stereo not given), the melting point was 156 to 158 °C.
Turning to `CN(CCc1ccccn1)C(=O)CCSc1cc(Cl)c(O)c(Cl)c1`, the melting point lay within 120 to 123 °C.
`CC(C)C1C(=O)N(CSc2ccccc2)S(=O)(=O)N1C` (stereo not given) had a melting point of 82 to 83 °C.
The compound `COc1ccc(Cn2c(=O)[nH]c3ccc(C(=O)NCc4ccc5c(c4)OCO5)cc3c2=O)cc1` registered a melting point of 252 °C.
For `COc1ccc(F)cc1C(C)(C)CC(O)(Cc1ccccn1)C(F)(F)F` (stereo not given) the value was 94 to 96 °C.
Under `O=C(CCl)n1ccc2cc(F)ccc21` stands 236 to 237 °C; under `CNS(=O)(=O)c1ccc(-c2coc3ccc(-c4nnc(C)o4)cc23)cc1`, 203 to 204 °C.
`O=S1(=O)NCN(C2CCCCC2)c2cc(Cl)ccc21` had a melting point of 178 to 180 °C.
For the compound `COc1ccc(CN2CCN(CCCN3CCN(Cc4ccc(OC)cc4)CC3)CC2)cc1`, the melting point was in the range of 86 to 87 °C.
Turning to `CC(=O)OCC1CC(OC(C)=O)C(n2c(Br)nc3cc(Cl)c(Cl)cc32)C1` (stereo not given), the melting point was in the range of 122 to 125 °C.
Turning to `Cc1oc(-c2ccccc2)nc1CCc1nc(COc2cccc(CC(=O)O)c2)cs1`, the melting point was 153 to 154 °C.
As for `CC(=O)N(C(C)=O)c1ccc2c(c1)C(C(Cl)(Cl)Cl)OC(C(Cl)(Cl)Cl)O2` (stereo not given), the melting point was 147 to 148 °C.
For `CC(C)Oc1c(C(=O)NCc2ccccc2)oc2ccc(Cl)cc12` the value was 80 to 82 °C; for `CCOC(=O)C(CCC#N)(C(=O)OCC)c1ncc(C)cc1[N+](=O)[O-]`, 48 to 49 °C; for `CCOC(=O)c1cn(C[C@@H]2CN(c3ccc(N4CCC5(CC4)OCCO5)c(F)c3)C(=O)O2)nn1`, 168 to 170 °C.
For `Cc1c(Br)c(Br)c(C)c(Br)c1Br` the value was 247 to 249 °C; for `COc1ccc(Br)c2nc(SCc3ccccc3)nn12`, 78 to 79 °C; for `O=C(NC1CCN(CCc2ccccc2)CC1)C1=Cc2cnc3cccc(n23)S1`, 216 to 217 °C.
For `O=c1c2ccc(Cl)cc2[nH]n1-c1ccccc1F` the value was 205 to 215 °C; for `COc1ccc(C)cc1OCCO`, 42 to 43 °C.
Regarding `CCC(Cc1c(C)cc(C(C)(C)C)c(O)c1C)(C(=O)OC1CC(C)(C)NC(C)(C)C1)C(=O)OC1CC(C)(C)NC(C)(C)C1`, the melting point was determined as 175 °C.
As to `CC(O)CSc1sc(-c2cc[nH]n2)c2c1C(=O)CC(C)(C)C2` (stereo not given), the melting point fell in the range of 175 to 178 °C.
Compound `COC(=O)c1c(O)c2ccccc2n1-c1ccc(OC)cc1` displayed a melting point of 153 to 155 °C.
For `COc1cc(OC)cc(-c2nc(-c3ccccn3)no2)c1`, the melting point was in the range of 145 to 148 °C.
In turn, `CCCC12CCC3=C(CCc4cc(O)ccc43)C1=CCC2=O` (stereo not given) returned a melting point of 149 to 155 °C.
As to `CS(=O)(=O)c1ccc(-c2nc(C(F)(F)F)nc(N=[N+]=[N-])c2-c2ccc(F)cc2)cc1`, the melting point fell in the range of 285 to 288 °C.

These data come from a melting point compilation (Tetko et al.; mined from patent text by program, amines drawn as free bases though some values may be those of a salt).
